Measurements reported in patent US11254671B2, “Chemical compounds” (GLAXOSMITHKLINE INTELLECTUAL PROPERTY DEVELOPMENT LIMITED, priority 2017, dated 2022).

Legend:
[1] = system: phosphorylated Akt at serine 473 (pAKTs473) in primary human lung fibroblasts; assay: Highthroughput phosphorylated Akt (Ser473) in vitro immunoassay (MSD); type: cell-based; conditions: Fibroblast, 1 h compound, PDGF-BB 10 ng/ml for 10 min, mean of multiple experiments, read-out: mean pIC50, inhibition of pAkt (Ser473) (converted)
Description: Highthroughput Phosphorylated Akt (Ser473) In Vitro Immunoassay
Immunoassay to measure effect of test compounds on phosphorylated Akt at serine 473 (pAKTs473) in primary human lung fibroblasts (Lonza Group Ltd, Basel, Switzerland, Catalogue No. CC-2512) using the MesoScale Discovery (MSD) platform to quantify levels of total Akt and pAKTser473.
Human lung fibroblasts were routinely maintained in fibroblast basal medium supplemented with 2% foetal bovine serum (FBS), 0.1% human fibroblast growth factor (FGF)-B, 0.1% insulin, 0.1% GA-100 (Lonza Group Ltd, Basel, Switzerland, Catalogue No. CC-3132) at 37° C. in 5% CO2 according to the manufacturer's protocol.
For the assay, cells were harvested using Trypsin/EDTA, (Lonza Group Ltd, Basel, Switzerland, Catalogue No. CC-5012), at working concentration of 0.025%, resuspended to give 3×10^5 cells/ml and 50 ul/well seeded into 384-well plates (Greiner Group, Kremsmunster, Austria, Catalogue No. 781091) in media containing 0.4% FBS and incubated o/n at 37° C. in 5% CO2.
Test compounds were dissolved in 100% DMSO to give 10 mM stock solutions and serially diluted to generate an 11-point concentration response curve. Compound were further diluted by […] into 384-well V-bottom polypropylene plates (Greiner Group, Kremsmunster, Austria, Catalogue No. 781280) with media containing 0.4% FBS to give 50 μM top compound concentration in 0.5% DMSO.
Compounds were transferred to 384-well plates contacting cells (0.1% DMSO final) and incubated for 1 h at 37° C. in 5% CO2, prior to stimulation with platelet-derived growth factor (PDGF)-BB (R&D Systems, Catalogue No. 220-BB) at 10 ng/ml (final) for 10 min at RT. Cell assay plates were incubated on ice and treated with lysis buffer (Cell Signalling Technology, Catalogue No. 9806) containing protease and phosphatase inhibitors (Thermo Scientific, Catalogue No. 78444) followed by shaking for 30 min at 4° C.
MSD plates (MSD, MA6000 384-well GAR plate, Catalogue No. L21RA-2) were blocked with blocking buffer containing TBS (MSD, Cat. No. R61TX-1) with 0.5% bovine serum albumin (BSA) (Sigma Aldrich, Cat. No. A7906), 0.1% tween-20 (Sigma Aldrich, Catalogue No. P2287) and coated with rabbit-anti-human pAkt (s473) ab (Cell Signalling Technology, Catalogue No. CST #4060) at RT with shaking, followed by washing (×3) with 1×TBS wash reagent containing 0.1% Tween-20. Cell lysates (30 ul) were added and MSD plates centrifuged at 1000 rpm at 4° C. o/n.
Plates were washed with 1×TBS wash buffer (×3), prior to addition of mouse-anti-human-total Akt ab (1 mg/ml) (Upstate (Milipore), Catalogue No. 05-591) in blocking buffer and shaken at RT for 1 h. After washing with 1×TBS wash buffer (×3), plates were incubated with goat-anti-mouse SULFO-TAG detection ab (MSD, Catalogue No. R32AC-1) (1:500 in blocking buffer) for 1 h at RT. Plates were washed with 1×TBS (×3) and read buffer (2×) (MSD, Catalogue No. R92TC-1) added before detecting electrochemiluminescence (MSD Sector Imager 6000).
Data analysis was performed by determining % inhibition values for test compounds relative to the minimum (+PDGF-BB stimulation) and maximum responses (no PDGF-BB stimulation) with non-linear regression analysis to determine IC50 values for test compounds.

[2] = system: type I collagen deposition in primary lung fibroblasts; assay: Highthroughput type I collagen deposition (scar-in-a-jar) high content screening assay; type: cell-based; conditions: Homo sapiens, Primary lung fibroblast, 72 h, human pulmonary fibroblasts, TGF-β 1 ng/ml, Ficoll crowding, mean of multiple experiments, read-out: mean pIC50, inhibition of type I collagen deposition (converted)
Procedure: Example 53 Highthroughput Type I Collagen Deposition (Scar-in-a-Jar) High Content Screening Assay
Highthroughput, cellular type I collagen deposition was measured by adapting a published method; scar-in-a-jar (Chen et al., 2009) to primary lung fibroblasts derived from human tissue and combining with high content analysis to permit fluorescent quantification of collagen deposited in the extracellular matrix (ECM). The human biological samples were sourced ethically and their research use was in accord with the terms of the informed consents
Test compounds were dissolved in 100% DMSO to give 10 mM (stocks) and further diluted to give half log dilutions to generate an 11 point concentration response curve. 1 ul was transferred to 384-well plates (Greiner Group, Kremsmunster, Austria, Catalogue No Greine 781280r).
Human pulmonary fibroblasts were maintained in DMEM media (Gibco, Catalogue No 21969) supplemented with 4 mM L-glutamine (Gibco Catalogue No 25030-024) and 10% heat inactivated FBS (Gibco, Catalogue No 10099-141) at 37° C. in 10% CO2. Cells were harvested and resuspended at 4×10^6 cells/ml in a T175 cell culture flask (BD Falcom, Catalogue No: 353112) containing 50 mL of culture media. After 4 days 37° C. in 10% CO2, cells were harvested and seeded at 4000 cells per well (50 μL/well) into 384-well plates (BD Falcon, Catalogue No 353962Greiner) in assay media (0.4% heat inactivated FBS, 4 mM L-glutamine). Plates were sealed with breathable seals (Sigma, Catalogue No. BEM-1). Assay plates were incubated for 72 h at 37° C. in 10% CO2.
Assay media was supplemented with 112.5 mg/ml Ficoll 70 (Sigma, Catalogue No F2878), 75 mg/ml Ficoll 400 (Sigma, Catalogue No F4375) and 50 μg/ml ascorbic acid (Sigma, Catalogue No A8960). 30 μL assay media were added to 1 μl compound (37 μM compound concentration in 1% DMSO). Diluted compounds (10 μL) were transferred to plates containing cells and incubated for 3 h at 37° C. in 10% CO2. Transforming growth factor (TGF)-β (R&D systems, Catalogue No 100-B/CF) was reconstituted to give 10 μg/mL (stock) and further diluted in assay media containing Ficoll and ascorbic acid (1 in 3333). TGF-β was added to cell plates (1 ng/ml final) and cells incubated for 72 h at 37° C. in 10% CO2.
Media was aspirated from cells and 30 μL/well 100% ice-cold methanol added and incubated at RT for 5 min to fix cells. Methanol was aspirated and cells washed with PBS (3×). To block and permeabilise, cells were incubated with PBS containing 1% BSA and 0.1% Triton X 100 for 20 min, followed by PBS wash (3×). Cells were incubated with mouse anti human type I collagen monoclonal antibody (Sigma, Catalogue No C2456) diluted 1:1000 in PBS for 24 h at 4° C. Cells were washed with PBS containing 0.1% Tween-20 (3×) and incubated with secondary alexa fluor 488 goat-anti-mouse antibody (Invitrogen, Catalogue No A11001, 1 in 500 in PBS) and Hoechst 33342 (Sigma, Catalogue No H21492), 1 in 1000 in PBS) for 1 h at RT, prior to washing with PBS containing 0.1% Tween (×4).
Type I collagen immunoreactivity was detected using the INCell 2000 Analyzer (GE Healthcare, INcell 2000) set to excitation and emission wavelengths for DAPI and FITC with laser focus and exposure adjusted to appropriate levels. Images were imported and analysed using Columbus software (Perkin Elmer) and computational algorithms to quantify “total collagen area” and “cell count”.
Data analysis was performed by determining % inhibition values for test compounds relative to the minimum (media only) and maximum responses (TGF-βstimulation) with non-linear regression analysis to determine IC50 values for test compounds.

mTOR = biological target: T1, mTOR (Homo sapiens, UniProt P42345); assay: mTOR kinobeads assay (competition-binding assay); conditions: HuT-78 cell extract, endogenously expressed mTOR, bead-immobilized capturing ligand; mean of multiple experiments; read-out: mean pIC50, affinity for mTOR (converted)
T1 construct: capturing of endogenously expressed target proteins from cell extracts by a bead-immobilized capturing ligand; endogenous in cells; host or cells: HuT-78 cells (ECACC 88041901), cell lysate
Procedure: The affinity of test compounds for mTOR was determined in the mTOR kinobeads assay. This is a competition-binding assay based on the capturing of endogenously expressed target proteins from cell extracts by a bead-immobilized capturing ligand in presence of the test compound.
HuT-78 cells (European Collection of Authenticated Cell Cultures, 88041901) were cultured according to vendor's instructions. Frozen cell pellets were homogenized in 3× pellet volumes lysis buffer (50 mM Tris-HCl, 0.4% (v/v) Igepal-CA630, 5% glycerol, 150 mM NaCl, 1.5 mMMgCl2, 25 mM NaF, 1 mM sodium vanadate, 1 mM DTT, pH 7.5, supplemented with EDTA-free protease inhibitor tablet (Roche)). The sample was dispersed using a Dounce homogenizer, kept rotating for 30 min at 4° C., and centrifuged for 10 min at 20 000 g at 4° C. The supernatant was centrifuged again for 1 h at 145 000 g. The protein concentration was determined by Bradford assay (BioRad), aliquots were snap frozen in liquid nitrogen and stored at −80° C.
The capturing matrices were generated by derivatizing N-hydroxysuccinimide (NHS) activated Sepharose 4 beads (GE Healthcare) with the functionalized ligands Compound A and Compound C at a ligand density of 5 mM. Remaining NHS-groups were blocked with ethanolamine.
For the mTOR kinobeads assay the matrices were combined in a 1:1 ratio and equilibrated in DP buffer (50 mM Tris-HCl (pH 7.5), 0.4% (v/v) Igepal-CA630, 5% (v/v) glycerol, 150 mM NaCl, 1.5 mM MgCl2, 25 mM NaF, 1 mM Na3VO4, 1 mM dithiothreitol). All steps of the mTOR kinobeads assay were performed at 4° C. or on ice. The cell lysate was diluted with DP buffer to a final concentration of 5 mg/ml and a final detergent concentration of 0.4% (v/v) Igepal-CA630. For the assay 250 μg cell lysate and 2.5 μl capturing matrix per well (final assay volume: 75 μl) were incubated in the presence of test compounds in a 384-well filter plate (MultiScreenHTS HV Filter Plate, 0.45 μm, MZHVNOW50, Merck Millipore). Each plate contained 16 positive (100 μM Compound B) and 16 negative (2% v/v DMSO) control wells. Compounds were tested in a concentration-response applying 1:3 or 1:4 dilution steps for in total 11 data points. DMSO concentration was 2% (v/v). After 2 h incubation on an overhead shaker (Roto-Shake Genie, Scientific Industries Inc.) at 4° C. the non-bound fraction was removed by washing the beads with DP buffer. Proteins retained on the beads were eluted in SDS sample buffer (200 mM Tris (pH 7.4), 250 mM Trizma Base, 4% (w/v) SDS, 20% (v/v) glycerol, 0.01% (w/v) bromophenol blue, 50 mM dithiothreitol) into a collection plate (384 well polypropylene microplate, V-shape, Greiner, 781 280). Eluates were spotted on nitrocellulose membranes (400 nl per spot) using an automated pin-tool liquid transfer (Biomek FX, Beckman). After drying, the membranes were rehydrated in 20% (v/v) ethanol and blocked by incubation with Odyssey blocking buffer (LICOR, 927-40000) for 1 h at room temperature. Blocked membranes were incubated overnight at 25° C. with Odyssey blocking buffer supplemented with a specific anti-mTOR antibody (Cell Signaling, 2972; 1:500) and 0.4% TWEEN-20. Then the membranes were washed in PBST buffer and incubated for 60 minutes at room temperature with the detection antibody (IRDye™ labelled antibody from LI-COR) diluted in Odyssey blocking buffer (LICOR 927-40000) containing 0.2% TWEEN-20. Then the membranes were washed with PBST and finally rinsed twice with PBS buffer to remove residual Tween-20. The membranes were then scanned with the Odyssey® Infrared Imaging System (LI-COR Biosciences). Fluorescence signals were recorded and analyzed according to the instructions of the manufacturer. Concentration response curves were computed with the software Activity Base. All data were normalized to the mean of 16 high (negative control) and 16 low (positive control) control wells on each plate. […]

| SMILES | IC50 [1] | IC50 [2] | IC50 (mTOR) |
| --- | --- | --- | --- |
| CCCC1COCCN1c1cc(CS(C)(=O)=O)cc(-c2ccc3[nH]c(CNC)cc3n2)n1 (stereo not shown) [Example 48, ({5-[4-(methanesulfonylmethyl)-6-(3-propylmorpholin-4-yl)pyridin-2-yl]-1H-pyrrolo[3,2-b]pyridin-2-yl}methyl)(methyl)amine] | 3.16 to 316 nM | 39.8 to 1000 nM |  |
| CNCc1cc2nc(-c3cc(CS(C)(=O)=O)cc(N4C5CCC4COC5)n3)ccc2[nH]1 [Example 47, ({5-[4-(methanesulfonylmethyl)-6-{3-oxa-8-azabicyclo[3.2.1]octan-8-yl}pyridin-2-yl]-1H-pyrrolo[3,2-b]pyridin-2-yl}methyl)(methyl)amine] | 3.16 to 316 nM |  | 2.51 to 316 nM |
